Broadly, the Ki is the equilibrium dissociation constant of an inhibitor or competing ligand from its target. Usually Km stands for the substrate concentration at which the rate is half of its maximum.

Where two headings read alike, the source gives them in different places.

Holding throughout (format): cell-based
Assay [1] addresses T1, human NTCP (Homo sapiens, UniProt Q14973).
T1 sequence (Q14973 1-349): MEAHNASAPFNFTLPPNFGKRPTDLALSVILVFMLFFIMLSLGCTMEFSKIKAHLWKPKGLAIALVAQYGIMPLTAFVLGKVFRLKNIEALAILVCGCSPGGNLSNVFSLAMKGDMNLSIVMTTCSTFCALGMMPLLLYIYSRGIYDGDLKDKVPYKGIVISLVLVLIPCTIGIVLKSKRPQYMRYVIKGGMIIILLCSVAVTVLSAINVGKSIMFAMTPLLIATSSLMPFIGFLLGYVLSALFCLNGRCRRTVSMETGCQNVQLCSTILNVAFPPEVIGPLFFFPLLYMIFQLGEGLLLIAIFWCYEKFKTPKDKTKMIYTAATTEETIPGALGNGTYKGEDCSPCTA
The experiment in a line: Inhibition of tauro-nor-THCA-24-DBD uptake in NTCP-transfected CHO cells. Also noted: expressed in transfected cells; host or cells: CHO cells, geneticin selection, expression induced with sodium butyrate. The note with it: for Uptake of tauro-nor-THCA-24-DBD (% of control): compound at equimolar concentration with 3 µM tauro-nor-THCA-24-DBD, triplicate; for Ki: read-out: Ki. As to the method: (§1) The cells were placed in an incubator at 37 °C and 5% CO2. The culture medium consisted of DMEM with 1 g·L^-1 glucose and 25 mM HEPES, supplemented with 10% FBS, 0.05 mg·mL^-1 L-proline, 100 IU·mL^-1 penicillin, 100 […], 2 mM glutamine, 0.11 mg·mL^-1 sodium pyruvate. To ensure selection of NTCP-transfected cells, 0.5 mg·mL^-1 geneticin was added to the medium of the transfected cells. Cells were seeded in black 96-well plates with transparent bottom at a density of 6000 cells·well^-1 and 4000 cells·well^-1 for wild-type and transfected cells, respectively. The medium was replaced every other day and 5 mM sodium butyrate was added to induce protein expression at least 36 h before the start of the experiments. Experiments were performed on day 4 or 5 after seeding when confluence was reached.
Furthermore, to analyse the uptake experiments in NTCP-transfected CHO cells, cells were rinsed twice with 200 µL-well^-1 uptake buffer (HBSS containing 10 mM HEPES, pH 7.4) at 37 °C and subsequently preincubated with 100 µL uptake buffer for 15 minutes. For inhibition experiments, compounds were added at double concentration during preincubation. Uptake was initiated by adding 100 µL double-concentrated tauro-nor-THCA-24-DBD solution in uptake buffer. Cells were incubated for 15 minutes. The reaction was quenched by aspirating the incubation mixture and washing four times with ice cold uptake buffer. The cells were lysed with 100 µL 0.5% Triton X-100 in PBS and placed on a plate shaker (300 rpm) at room temperature for 30 minutes. Uptake of tauro-nor-THCA-24-DBD was determined using fluorescence spectroscopy (excitation 440 nm, emission 580 nm) using a Tecan Infinite 200 plate reader (Tecan Benelux, Mechelen, Belgium). Protein content of each well was determined with the BCA Protein assay (Thermo Fisher Scientific, Waltham, MA) performed according to the manufacturer's protocol. Uptake kinetics of tauro-nor-THCA-24-DBD were determined by incubating eight different concentrations in the absence of any compound. […] All conditions were tested in triplicate.
Uptake of tauro-nor-THCA-24-DBD in presence of compounds was expressed to uptake of the control for each batch, i.e. when no compound was present.
For determination of the IC50, the uptake in presence of various concentrations of inhibitor was fitted to the sigmoid Emax model: E = Emax −(Emax−E0) × (([I])^n)/(([I])^n + IC50^n) [formula] with E the uptake of tauro-nor-THCA-24-DBD, E0 the uptake at maximal inhibition by the compound, Emax the uptake at minimal inhibition, IC50 the concentration of the inhibitor at half maximal inhibition, n the Hill coefficient and [I] the concentration of the inhibitor. All curves were fitted with nonlinear least squares regression using R version 3.5.1.
Assuming competitive inhibition, the Cheng-Prusoff equation was used to determine the Ki value: Ki = (IC50)/(1 + ([S])/(Km)) [formula] where Ki is the binding affinity of the inhibitor, IC50 the concentration of the inhibitor at half maximal inhibition, [S] the substrate concentration, and Km the Michaelis-Menten constant of the substrate.

Assay [2] addresses T1, human NTCP. Kind of assay: Uptake kinetics of tauro-nor-THCA-24-DBD in NTCP-transfected CHO cells. On the set-up: expressed in transfected cells; host or cells: CHO cells, geneticin selection, expression induced with sodium butyrate. How it is done:
as §1, with “To culture of NTCP-transfected CHO cells, wild-type and human NTCP-transfected CHO cells were cultured from passage 20 to 45 in T-75 flasks (Greiner-Bio-One, Wemmel, Belgium) as prescribed previously (Treiber et al., 2007). The cells” for “The cells”
(§2) Furthermore, to analyse the uptake experiments in NTCP-transfected CHO cells, cells were rinsed twice with 200 µL-well^-1 uptake buffer (HBSS containing 10 mM HEPES, pH 7.4) at 37 °C and subsequently preincubated with 100 µL uptake buffer for 15 minutes. For inhibition experiments, compounds were added at double concentration during preincubation. […] Uptake of tauro-nor-THCA-24-DBD was determined using fluorescence spectroscopy (excitation 440 nm, emission 580 nm) using a Tecan Infinite 200 plate reader (Tecan Benelux, Mechelen, Belgium). Protein content of each well was determined with the BCA Protein assay (Thermo Fisher Scientific, Waltham, MA) performed according to the manufacturer's protocol. Uptake kinetics of tauro-nor-THCA-24-DBD were determined by incubating eight different concentrations in the absence of any compound. The inhibitory potential of all compounds of the Spectrum Collection (n = 2000) and the ChemDiv library (n = 556) were determined at equimolar concentrations with 3 µM tauro-nor-THCA-24-DBD. […]

The target in assay [3] is T1, human NTCP. The experiment in a line: Inhibition of tauro-nor-THCA-24-DBD uptake in NTCP-transfected CHO cells. On the set-up: expressed in transfected cells; host or cells: CHO cells, geneticin-selected, expression induced with sodium butyrate. How it is done: The cells were placed in an incubator at 37 °C and 5% CO2. The culture medium consisted of DMEM with 1 g·L^-1 glucose and 25 mM HEPES, supplemented with 10% FBS, 0.05 mg·mL^-1 L-proline, 100 IU·mL^-1 penicillin, 100 […], 2 mM glutamine, 0.11 mg·mL^-1 sodium pyruvate. To ensure selection of NTCP-transfected cells, 0.5 mg·mL^-1 geneticin was added to the medium of the transfected cells. Cells were seeded in black 96-well plates with transparent bottom at a density of 6000 cells·well^-1 and 4000 cells·well^-1 for wild-type and transfected cells, respectively. […]
as §2, with “minutes.” for “minutes. For inhibition experiments, compounds were added at double concentration during preincubation.”, “compound.” for “compound. The inhibitory potential of all compounds of the Spectrum Collection (n = 2000) and the ChemDiv library (n = 556) were determined at equimolar concentrations with 3 µM tauro-nor-THCA-24-DBD.”

[4] abbreviates: 3 µM tauro-nor-THCA-24-DBD, Cheng-Prusoff from IC50, screening hits.
The mark [5] stands for this setting: concentration dependent uptake, 15 minutes, NTCP-transfected CHO cells, Michaelis-Menten fit.

On to `Cc1cc(O)c(C=O)c(O)c1C(=O)O` [Haematommic acid], for which the “Uptake of tauro-nor-THCA-24-DBD (% of control)” value (shortened to “Uptake … (% of control)”) in assay [1] was 49.33 % of control.
As to `Cc1cc2c(C(=O)NC[C@H](C)c3ccccc3)c(O)c(O)cc2c(O)c1-c1c(C)cc2c(C(=O)NC[C@H](C)c3ccccc3)c(O)c(O)cc2c1O` [sabutoclax], in assay [1] (3 µM tauro-nor-THCA-24-DBD, multiple inhibitor concentrations), the “concentration-dependent inhibition of tauro-nor-THCA-24-DBD uptake” value is given as “showed concentration-dependent inhibition”. For the same molecule, in assay [1] (3 µM tauro-nor-THCA-24-DBD, values given with ± spread), the inhibition constant Ki turned out to be 0.522 ± 0.077 µM.
`O=C(O)c1ccccc1Nc1cccc(C(F)(F)F)c1` [Flufenamic acid]: the Ki in assay [1] (setting [4]) turned out to be 7.51 µM. In assay [1], the “Uptake … (% of control)” value was 44.12 % of control.
`CN[C@@H]1[C@@H](O)[C@@H](O[C@@H]2[C@@H](O)[C@H](O[C@H]3O[C@H]([C@@H](C)O)[C@@H](O)[C@H](O)[C@H]3N)[C@@H](N)C[C@H]2N)OC[C@]1(C)O` [Geneticin]: the “Uptake … (% of control)” value in assay [1] is on record as 43.81 % of control.
In the case of `Nc1nc(=O)c2[nH]c(=O)cnc2[nH]1` [Xanthopterin], in assay [1], the “Uptake … (% of control)” value is on record as 49.67 % of control.
Regarding `CCOc1nc2cccc(C(=O)OC(C)OC(=O)OC3CCCCC3)c2n1Cc1ccc(-c2ccccc2-c2nnn[nH]2)cc1` (stereo not drawn) [Candesartan cilextil], the Ki in assay [1] (setting [4]) came to 0.34 µM. Further, in assay [1], the “Uptake … (% of control)” value is listed as 19.76 % of control.
On to Echinocystic acid, for which the “Uptake … (% of control)” value in assay [1] is recorded as 24.64 % of control.
With tauro-nor-THCA-24-DBD, in assay [2] (setting [5]), the Km was 9.2 ± 1.8 µM and the Vmax worked out at 322.1 ± 18.3 pmol·mg protein^-1·min^-1. Further, the uptake clearance in assay [2] (corresponds to Vmax and Km) stood at 35.0 µL·mg protein^-1· min^-1.
Turning to `CCC(=O)O[C@H]1[C@H](O[C@@H]2[C@@H](C)[C@H](O[C@H]3C[C@@](C)(OC)[C@@H](O)[C@H](C)O3)[C@@H](C)C(=O)O[C@H](CC)[C@@](C)(O)[C@H](O)[C@@H](C)C(=O)[C@H](C)C[C@@]2(C)O)O[C@H](C)C[C@@H]1N(C)C` [Erythromycin estolate], the inhibitory constant (Ki) in assay [1] (setting [4]) came to 0.52 µM. The “Uptake … (% of control)” value in assay [1] was 8.49 % of control.
Taken in the same sequence, the figures for `CCCCCc1c2c(cc(O)c1C(=O)O)OC(=O)c1c(cc(OC)cc1C(=O)CCCC)O2` [Lobaric acid] were 0.36 µM and 9.70 % of control.
Turning to `C=CC(C)(O)CCC=C(C)C` (stereo not drawn) [(+)- Linalool], the “Uptake … (% of control)” value in assay [1] was 46.35 % of control.
With `COc1cc2c(cc1OC)[C@@H]1C(=O)c3ccc4c(c3O[C@@H]1CO2)C=CC(C)(C)O4` [(-)-Deguelin], the inhibition constant (Ki) in assay [1] (setting [4]) amounted to 1.67 µM. Also, in assay [1], the “Uptake … (% of control)” value is given as 27.97 % of control.
Taken in the same sequence, the figures for `O=C(Nc1ccc([N+](=O)[O-])cc1Cl)c1cc(Cl)ccc1O` [Niclosamide] were 0.08 µM and 35.45 % of control.
Taken in the same sequence, the figures for `COc1ccc(-c2c(OC)c3c(OC)c4c(cc3oc2=O)OC(C)(C)C=C4)cc1` [Robustic acid methyl ether] were 10.6 µM and 21.11 % of control.
Taken in the same sequence, the figures for `O=C(O)c1cc([N+](=O)[O-])ccc1NCCCc1ccccc1` [5-nitro-2-phenylpropylaminobenzoic acid] were 0.82 µM and 49.55 % of control.
Molecule Gramicidin registered an inhibitory constant (Ki) in assay [3] (setting [4]) of 7.59 µM. Further, the “Uptake … (% of control)” value in assay [3] (compound at equimolar concentration with 3 µM tauro-nor-THCA-24-DBD, triplicate) is listed as 37.54 % of control.
Turning to `COc1cc2c(cc1OC)[C@@H]1C(=O)c3ccc4c(c3O[C@@H]1CO2)C[C@H](C(C)C)O4` [Dihydrorotenone], in assay [1] (setting [4]), the Ki worked out at 1.11 µM. Further, the “Uptake … (% of control)” value in assay [1] was 37.31 % of control.

The values are drawn from patent publication EP4159213A1, “PHARMACEUTICAL COMPOSITIONS FOR USE IN PREVENTION AND/OR TREATMENT AND/OR CURE OF HEPATITIS B VIRUS” (Katholieke Universiteit Leuven, priority 2021, dated 2023).
